Values of other authors, collected in US6063383A, “Pharmaceutical suppository composites for fever and influenza and method of producing the composites” (priority 1999, dated 2000).

System: small rats
Settings: rat, in vivo

NCCS(=O)(=O)O [taurine]
spontaneous and pedaling activities: can reduce the combined action of spontaneous activities and pedaling activities
